{"source": "paper PMC8597046", "about": "“Use of Mixture Dosing and Nonlinear Mixed Effect Modeling of Eight Environmental Contaminants in Rabbits to Improve Extrapolation Value of Toxicokinetic Data” (Environmental Health Perspectives, 2021)", "key": {"[1]": {"assay": "in vivo", "conditions": "female, rabbit, in vivo, iv", "outline": "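Female New Zealand white rabbits received a compound mixture IV via ear-vein catheter; serum sampled sparsely (3 rabbits/time point) from 15 min to 28 d. Noncompartmental sparse-data analysis on mean profiles: linear-trapezoidal AUC, CL as dose/AUC0−inf, half-life from λZ, MRT and VSS.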"}, "[2]": {"assay": "in vivo", "outline": "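Rabbit serum concentrations after IV and oral dosing fitted jointly by NLME compartmental modeling (−2LL minimization, Laplacian or QRPEM), exponential between-subject variability, combined additive/proportional error. CL, V2, Q, VZ, AUC (Dose/CL) and terminal half-life derived from population primary parameters.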"}, "[3]": {"conditions": "rabbit, in vivo; cited from earlier work"}, "[4]": {"conditions": "New Zealand white (INRA 1777 line)"}, "[5]": {"conditions": "New Zealand white, Serum concentration"}, "[6]": {"conditions": "female, New Zealand white (INRA 1777 line), rabbit, in vivo"}, "[7]": {"conditions": "female, New Zealand white, rabbit, in vivo"}, "[8]": {"conditions": "population primary parameter, typical value, mean"}}, "note": "Read-outs that look alike come from different tables or passages of the source.", "data": [{"smiles": "Clc1c(Cl)c(Cl)c(Cl)c(Cl)c1Cl", "note": "[HCB, hexachlorobenzene]", "values": [{"measurement": "AUC(0-inf)", "setting": "[1]; [4]", "value": 4.52, "unit": "µM·h"}, {"measurement": "Cmax", "setting": "[1]; [4]", "value": 19, "unit": "nM"}, {"measurement": "MRT", "setting": "[1]; [4]", "value": 23, "unit": "days"}, {"measurement": "clearance", "setting": "[1]; [4]", "value": 0.85, "unit": "mL/min/kg"}, {"measurement": "half-life", "setting": "[1]; [4]", "value": 17.2, "unit": "days"}, {"measurement": "Vd", "setting": "[1]; New Zealand white (INRA 1777 line), VSS", "value": 28.1, "unit": "L/kg"}, {"measurement": "Vd", "setting": "[1]; New Zealand white (INRA 1777 line), VZ", "value": 30.5, "unit": "L/kg"}, {"measurement": "Serum concentration", "setting": "[1]; New Zealand white, 24 h", "value": 7.1, "unit": "nM"}, {"measurement": "Serum concentration", "setting": "[1]; New Zealand white, 168 h", "value": 6.4, "unit": "nM"}, {"measurement": "concentration at 0.6 h", "setting": "[1]; [5]", "value": 11, "unit": "nM"}, {"measurement": "concentration at 0.67 h", "setting": "[1]; [5]", "value": 19, "unit": "nM"}, {"measurement": "concentration at 0.77 h", "setting": "[1]; [5]", "value": 15, "unit": "nM"}, {"measurement": "concentration at 24 h", "setting": "[1]; [5]", "value": 8.2, "unit": "nM"}, {"measurement": "concentration at 24.03 h", "setting": "[1]; [5]", "value": 6.1, "unit": "nM"}, {"measurement": "concentration at 71.97 h", "setting": "[1]; [5]", "value": 4.2, "unit": "nM"}, {"measurement": "concentration at 72 h", "setting": "[1]; [5]", "value": 5.8, "unit": "nM"}, {"measurement": "concentration at 72.03 h", "setting": "[1]; [5]", "value": 6.5, "unit": "nM"}, {"measurement": "concentration at 167.92 h", "setting": "[1]; [5]", "value": 4.1, "unit": "nM"}, {"measurement": "concentration at 168 h", "setting": "[1]; [5]", "value": 5.2, "unit": "nM"}, {"measurement": "concentration at 671.83 h", "setting": "[1]; [5]", "value": 2.7, "unit": "nM"}, {"measurement": "concentration at 671.96 h", "setting": "[1]; [5]", "value": 2.3, "unit": "nM"}, {"measurement": "VSS", "setting": "[2]; [6]", "value": "33 to 45", "unit": "L/kg"}, {"measurement": "Vd", "setting": "[2]; [6]", "value": 35, "unit": "L/kg"}, {"measurement": "k el", "setting": "[2]; [6]", "value": "9.74e-07", "unit": "s⁻¹"}, {"measurement": "tvf (ilogit of the oral bioavailability)", "setting": "[2]; female, New Zealand white (INRA 1777 line), rabbit, in vivo, po", "value": 0.03625}, {"measurement": "bioavailability", "setting": "[2]; female, New Zealand white (INRA 1777 line), rabbit, in vivo, po, Oral bioavailability (F)", "value": "~50", "unit": "%"}, {"measurement": "Clearance", "setting": "[2]; [7]", "value": "0.83 to 5.67", "unit": "mL/min/kg"}, {"measurement": "Clearance(s) of distribution", "setting": "[2]; [7]", "value": 13, "unit": "mL/min/kg"}, {"measurement": "clearance", "setting": "[2]; [7]", "value": 0.85, "unit": "mL/min/kg"}, {"measurement": "half-life", "setting": "[2]; [7]", "value": 20, "unit": "days"}, {"measurement": "MRT", "setting": "[2]; female, New Zealand white, rabbit, in vivo, MRT", "value": "> 33.3", "unit": "days"}, {"measurement": "AUC", "setting": "[2]; female, New Zealand white, rabbit, in vivo, iv", "value": 4.5, "unit": "µM·h"}, {"measurement": "AUC", "setting": "[2]; female, New Zealand white, rabbit, in vivo, po", "value": 271, "unit": "µM·h"}, {"measurement": "bioavailability", "setting": "[2]; female, New Zealand white, rabbit, in vivo, po, Bioavailability", "value": 51, "unit": "%"}, {"measurement": "tvK12 (distribution rate constant)", "setting": "[2]; [8]", "value": 0.05299, "unit": "h⁻¹"}, {"measurement": "tvK21 (distribution rate constant)", "setting": "[2]; [8]", "value": 0.03851, "unit": "h⁻¹"}, {"measurement": "tvVc (volume of the central compartment)", "setting": "[2]; [8]", "value": 14.63, "unit": "L/kg"}, {"measurement": "tvKabs (rate constant of absorption)", "setting": "[2]; population primary parameter, typical value, mean, MEHP after oral DEHP", "value": 0.3488, "unit": "h⁻¹"}, {"measurement": "Volume(s) of the peripheral compartment", "setting": "[2]; population secondary parameter, mean, for PFOA first peripheral compartment", "value": 20, "unit": "L/kg"}, {"measurement": "half-life", "setting": "[3]", "value": 32, "unit": "days"}]}]}
